Among the test systems are A549 NSCLC; CAKI-1 renal; HCT-15 colon; KM12 colon; M14 melanoma; SR leukemia; SW-620 colon; HT29 colon; TK-10 renal.
Holding throughout (assay): inhibition of tumour cell growth, NCI panel, 48 h

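Each compound was tested at five concentrations against cells in 96-well plates for 48 hours. Here, GI50 denotes the concentration required for 50% inhibition of growth. TGI: concentration producing complete growth inhibition.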

In the case of `CC1=C2C(c3ccccc3)(c3ccccc3)C3C=CC2(C=N3)N(C(=O)NC2CCCCC2)C1=O` (stereo not drawn), the TGI with A549 NSCLC is 32.8 µM; in the test on CAKI-1 renal, 26.1 µM; in the test on HCT-15 colon, 30.4 µM; in the test on KM12 colon it was 32.1 µM; with M14 melanoma it was 31.2 µM; in the test on SR leukemia, 37.7 µM. The compound further yielded a TGI with SW-620 colon of 31.9 µM.

`Cc1cc(C)nc(NS(=O)(=O)c2ccc(NC(=O)c3cccc4cc5ccccc5nc34)cc2)n1`: the TGI is above 100 µM in the test on A549 NSCLC; above 100 µM in the test with CAKI-1 renal; 58.5 µM with HCT-15 colon; above 100 µM in the test on HT29 colon; 84.9 µM with KM12 colon; 51.4 µM in the test on M14 melanoma. The TGI in the test on SW-620 colon and in the test on TK-10 renal was above 100 µM throughout.

As for `COc1cc(Br)c(CC2=NCCc3cc(OC)c(OC)cc32)cc1OC`, the TGI in the test on A549 NSCLC is above 100 µM; with CAKI-1 renal, above 100 µM; in the test with HCT-15 colon, above 100 µM; in the test on HT29 colon, above 100 µM; in the test with KM12 colon, above 100 µM; with M14 melanoma it was 65.8 µM. Besides, the TGI with SR leukemia, with SW-620 colon and in the test with TK-10 renal was above 100 µM throughout.

Turning to `O=[N+]([O-])c1ccccc1C1N2CCCCC2[C@@H]2c3[nH]c4ccccc4c3CCN12` (stereo partly drawn), the TGI with A549 NSCLC stood at 35.8 µM; with CAKI-1 renal, 29.9 µM; in the test with HCT-15 colon it was 29.4 µM; with HT29 colon, 20.8 µM; in the test on M14 melanoma it was 26.7 µM; in the test with SW-620 colon, 23.4 µM. In addition, in the test on TK-10 renal, the TGI was 38.4 µM.

As to `Cc1ccc(Nc2ccc(Nc3ccc(C)cc3)c3c2C(=O)c2c(O)ccc(O)c2C3=O)cc1`, the TGI in the test with A549 NSCLC, in the test on CAKI-1 renal, in the test on HCT-15 colon, in the test on KM12 colon, in the test with M14 melanoma and in the test with SW-620 colon was above 100 µM each time. Moreover, the TGI with TK-10 renal was above 100 µM.

As to `C/C(=N\Nc1ccc([N+](=O)[O-])cc1)C(=O)N(C)Nc1ccccc1`, the TGI in the test with A549 NSCLC was above 100 µM; in the test with HCT-15 colon it was above 100 µM; with HT29 colon, above 100 µM; in the test on KM12 colon it was 64.6 µM; in the test with M14 melanoma, above 100 µM; with SR leukemia, above 100 µM. The TGI in the test with SW-620 colon and in the test with TK-10 renal was above 100 µM in each case.

Consider `COc1cc(C2C(C(=O)Nc3ccccc3)=C(C)NC(C)=C2C(=O)Nc2ccccc2)ccc1O`, for which the TGI was above 100 µM in the test with A549 NSCLC; above 100 µM with HCT-15 colon; 33.8 µM with HT29 colon; above 100 µM with KM12 colon; 93.3 µM in the test with SR leukemia; above 100 µM with SW-620 colon. For the same compound, the TGI in the test with TK-10 renal is above 100 µM.

Consider `O=C1C2=C(c3ccccc31)C(c1ccccc1Cl)N1C(=O)CSC1=N2` (stereo not drawn), for which the TGI with A549 NSCLC, with CAKI-1 renal, in the test on HCT-15 colon, in the test on HT29 colon, with KM12 colon and with M14 melanoma was above 100 µM each time. In addition, the TGI in the test with SW-620 colon and in the test with TK-10 renal was above 100 µM in each case.

For `Cc1ccc(NC(=O)C(=O)Cc2nc3ccccc3o2)c(C)c1`, the TGI in the test on A549 NSCLC, in the test on CAKI-1 renal, in the test on HCT-15 colon, in the test with HT29 colon, in the test on KM12 colon and with M14 melanoma was above 100 µM throughout. For the same compound, the TGI with SW-620 colon and in the test with TK-10 renal was above 100 µM each time.

On to `O=c1nc2cc(-c3ccccc3)[nH]c2nn1-c1c(Cl)cc(Cl)cc1Cl`, for which the TGI in the test with A549 NSCLC was 91.7 µM; in the test with CAKI-1 renal it was 68.5 µM; with HCT-15 colon it was above 100 µM; in the test with HT29 colon, 88.7 µM; with KM12 colon it was 39.2 µM; with M14 melanoma it was 59.3 µM. Further, the TGI in the test on SR leukemia was 62.5 µM; in the test with SW-620 colon, above 100 µM; in the test on TK-10 renal, 69.4 µM.

`C[Si](C)(C)/C=C/CN1C(=O)CCC1O` (stereo not drawn): the TGI in the test with A549 NSCLC, in the test on CAKI-1 renal, with HCT-15 colon, with HT29 colon, in the test on KM12 colon and with M14 melanoma was above 100 µM each time. Further, the TGI in the test with SR leukemia, in the test with SW-620 colon and in the test with TK-10 renal was above 100 µM throughout.

On to `O=c1c([Se]c2coc3ccccc3c2=O)coc2ccccc12`, for which the TGI turned out to be 20.9 µM in the test with A549 NSCLC; 39.8 µM in the test with CAKI-1 renal; 30.8 µM in the test on HCT-15 colon; 32.4 µM in the test with HT29 colon; 23.4 µM in the test with KM12 colon; 28.2 µM in the test on M14 melanoma. The TGI in the test on SR leukemia amounted to 22.4 µM; in the test with SW-620 colon, 34.3 µM; in the test with TK-10 renal, 31.6 µM.

Regarding `COC(=O)C1=C(C(=O)OC)C2(C(=O)OC)OC1(OC)C(C1(C(=O)OC)C(C(=O)OC)=C1C(=O)OC)=C2C(=O)OC` (stereo not drawn), the TGI in the test with A549 NSCLC, with HCT-15 colon, in the test with HT29 colon, in the test on KM12 colon, in the test on M14 melanoma and with SR leukemia was above 100 µM each time. Further, the TGI in the test on SW-620 colon and with TK-10 renal was above 100 µM throughout.

Consider `CCCC[C@@H](COC(=O)N(Cc1cccs1)Cc1cccs1)NC(=O)N[C@@H](CC(=O)OC)c1ccc2c(c1)OCO2`, for which the GI50 in the test with A549 NSCLC was 67.7 µM; in the test with CAKI-1 renal, above 100 µM; in the test with HCT-15 colon it was above 100 µM; in the test on HT29 colon, above 100 µM; in the test with KM12 colon, above 100 µM; in the test on M14 melanoma, above 100 µM. The GI50 in the test on SW-620 colon and in the test with TK-10 renal was above 100 µM each time. For the same compound, the TGI in the test on A549 NSCLC, in the test on CAKI-1 renal, with HCT-15 colon, in the test on HT29 colon, in the test with KM12 colon and in the test on M14 melanoma was above 100 µM in each case. Further, the TGI in the test with SW-620 colon and in the test on TK-10 renal was above 100 µM each time.

In the case of `CC[C@@H]1OC2(C)CC(S(=O)(=O)c3ccccc3)CC1O2` (stereo partly drawn), the TGI in the test with A549 NSCLC, with CAKI-1 renal, in the test on HCT-15 colon, in the test on HT29 colon, in the test on KM12 colon and with M14 melanoma was above 100 µM throughout. Moreover, the TGI with SR leukemia and in the test with SW-620 colon was above 100 µM each time.

(Values after PubChem BioAssay (NCI).)
